pIC50: −log10 of the molar value.
System: 845751-090-R-J2-PDC tumor spheroid viability
Experiment: Anticancer human tumor 845751-090-R-J2-PDC patient-derived head and neck squamous carcinoma cell line growth inhibition [IpAb]
Conditions: spheroids with HUVEC and MSC; for pIC50: curve of first compound; for viability, T/C: stronger effect = lower value
Procedure, shortened: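 Spheroids of 60% malignant cells, 25% HUVEC and 15% MSC were exposed to targeted agents combined with ipatasertib or abemaciclib. Doses started at or near clinical Cmax (10 microM when unknown) and fell in half-log steps.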

[1] = second compound 0.01 µM, first compound 0.0316 µM
[2] = second compound 0.01 µM, first compound 0.1 µM
[3] = second compound 0.01 µM, first compound 0.316 µM
[4] = second compound 0.01 µM, first compound 1 µM
[5] = second compound 0.01 µM, first compound 3.16 µM
[6] = second compound 0.01 µM, first compound 10 µM
[7] = second compound 0.0316 µM, first compound 0.0316 µM
[8] = second compound 0.0316 µM, first compound 0.1 µM
[9] = second compound 0.0316 µM, first compound 0.316 µM
[10] = second compound 0.0316 µM, first compound 1 µM
[11] = second compound 0.0316 µM, first compound 3.16 µM
[12] = second compound 0.0316 µM, first compound 10 µM
[13] = second compound 0.1 µM, first compound 0.0316 µM
[14] = second compound 0.1 µM, first compound 0.1 µM
[15] = second compound 0.1 µM, first compound 0.316 µM
[16] = second compound 0.1 µM, first compound 1 µM
[17] = second compound 0.1 µM, first compound 3.16 µM
[18] = second compound 0.1 µM, first compound 10 µM
[19] = second compound 0.316 µM, first compound 0.0316 µM
[20] = second compound 0.316 µM, first compound 0.1 µM
[21] = second compound 0.316 µM, first compound 0.316 µM
[22] = second compound 0.316 µM, first compound 1 µM
[23] = second compound 0.316 µM, first compound 3.16 µM
[24] = second compound 0.316 µM, first compound 10 µM
[25] = second compound 1 µM, first compound 0.0316 µM
[26] = second compound 1 µM, first compound 0.1 µM
[27] = second compound 1 µM, first compound 0.316 µM
[28] = second compound 1 µM, first compound 1 µM
[29] = second compound 1 µM, first compound 3.16 µM
[30] = second compound 1 µM, first compound 10 µM
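Also: spheroids exposed to compounds for 7 days before readout.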
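For viability, T/C in this document: CTG3D luminescence normalised so that 100% = DMSO vehicle control.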

SMILES | pIC50 (second compound 0.01 µM) | pIC50 (second compound 0.0316 µM) | pIC50 (second compound 0.1 µM) | pIC50 (second compound 0.316 µM) | pIC50 (second compound 1 µM) | viability, T/C [1] [%] | viability, T/C [2] [%] | viability, T/C [3] [%] | viability, T/C [4] [%] | viability, T/C [5] [%] | viability, T/C [6] [%] | viability, T/C [7] [%] | viability, T/C [8] [%] | viability, T/C [9] [%] | viability, T/C [13] [%] | viability, T/C [14] [%] | viability, T/C [19] [%] | viability, T/C [20] [%] | viability, T/C [25] [%] | viability, T/C [26] [%] | further results
C=CC(=O)N1CCN(c2nc(=O)n(-c3c(C)ccnc3C(C)C)c3nc(-c4c(O)cccc4F)c(F)cc23)C(C)C1 (stereo not given) + CCN1CCN(Cc2ccc(Nc3ncc(F)c(-c4cc(F)c5nc(C)n(C(C)C)c5c4)n3)nc2)CC1 | 5.23 | 5.65 | 5.77 | 5.73 | 5.65 | 95.2 | 96.3 | 102 | 82.3 | 53.7 | 46.9 | 64 | 84.3 | 70.9 | 67.2 | 115 | 61.5 | 67.9 | 62.6 | 62.4 | viability, T/C [10]: 66%; viability, T/C [11]: 43.3%; viability, T/C [12]: 31.7%; viability, T/C [15]: 74.6%; viability, T/C [16]: 56.1%; viability, T/C [17]: 46%; viability, T/C [18]: 27.2%; viability, T/C [21]: 72.5%; viability, T/C [22]: 55.7%; viability, T/C [23]: 43%; viability, T/C [24]: 16.9%; viability, T/C [27]: 72.2%; viability, T/C [28]: 59.9%; viability, T/C [29]: 45.4%; viability, T/C [30]: 28.4%
Cn1ncc(Cl)c1-c1cc(C(=O)NC(CN)Cc2cccc(F)c2)sc1Cl (stereo not given) + CCN1CCN(Cc2ccc(Nc3ncc(F)c(-c4cc(F)c5nc(C)n(C(C)C)c5c4)n3)nc2)CC1 | 6.75 | 7.02 | 6.80 | 6.77 | 6.40 | 97.8 | 58 | 34 | 32.3 | 8.93 | 0.28 | 90.9 | 38.1 | 30.7 | 86.3 | 56.7 | 63.4 | 72 | 64.3 | 75.1 | viability, T/C [10]: 28.1%; viability, T/C [11]: 8.85%; viability, T/C [12]: 0.59%; viability, T/C [15]: 34.1%; viability, T/C [16]: 29.2%; viability, T/C [17]: 6.19%; viability, T/C [18]: 0.25%; viability, T/C [21]: 26.7%; viability, T/C [22]: 25.8%; viability, T/C [23]: 4.76%; viability, T/C [24]: 0.45%; viability, T/C [27]: 53.1%; viability, T/C [28]: 27.4%; viability, T/C [29]: 3.89%; viability, T/C [30]: 0.61%
Cn1ncnc1[C@H]1c2n[nH]c(=O)c3cc(F)cc(c23)N[C@@H]1c1ccc(F)cc1 + CCN1CCN(Cc2ccc(Nc3ncc(F)c(-c4cc(F)c5nc(C)n(C(C)C)c5c4)n3)nc2)CC1 | < 7.00 | 7.14 | < 7.00 | 7.07 | 7.71 | 92.1 | 70.9 |  |  |  |  | 63.5 | 45 |  | 75.7 | 59.9 | 57.8 | 49.3 | 46.4 | 37.1 | viability, T/C (second compound 0.01 µM, first compound 0.000316 µM): 71.6%; viability, T/C (second compound 0.01 µM, first compound 0.001 µM): 94%; viability, T/C (second compound 0.01 µM, first compound 0.00316 µM): 91.8%; viability, T/C (second compound 0.01 µM, first compound 0.01 µM): 83.1%; viability, T/C (second compound 0.0316 µM, first compound 0.000316 µM): 74.7%; viability, T/C (second compound 0.0316 µM, first compound 0.001 µM): 81.8%; viability, T/C (second compound 0.0316 µM, first compound 0.00316 µM): 69.7%; viability, T/C (second compound 0.0316 µM, first compound 0.01 µM): 78.8%; viability, T/C (second compound 0.1 µM, first compound 0.000316 µM): 71.9%; viability, T/C (second compound 0.1 µM, first compound 0.001 µM): 66.3%; viability, T/C (second compound 0.1 µM, first compound 0.00316 µM): 71.3%; viability, T/C (second compound 0.1 µM, first compound 0.01 µM): 69.7%; viability, T/C (second compound 0.316 µM, first compound 0.000316 µM): 63.6%; viability, T/C (second compound 0.316 µM, first compound 0.001 µM): 69.4%; viability, T/C (second compound 0.316 µM, first compound 0.00316 µM): 72.8%; viability, T/C (second compound 0.316 µM, first compound 0.01 µM): 55%; viability, T/C (second compound 1 µM, first compound 0.000316 µM): 58.8%; viability, T/C (second compound 1 µM, first compound 0.001 µM): 84.5%; viability, T/C (second compound 1 µM, first compound 0.00316 µM): 57.7%; viability, T/C (second compound 1 µM, first compound 0.01 µM): 57.1%

Reference: PubChem BioAssay AID2060333 (Molecular Pharmacology Branch, DTP, NCI, 2025)
